The results in this text go back to ChEMBL document CHEMBL3352328, “Synthesis and biological evaluation of a new series of N-acyldiamines as potential antibacterial and antifungal agents” (2014).

Assay [1] has as its system Staphylococcus aureus. Put plainly: Bactericidal activity against methicillin-resistant Staphylococcus aureus clinical isolate 17 after 24 hrs. To be noted: isolate 17, 24 h. The class given is functional.
Assay [2] relates to Staphylococcus aureus. As to the kind of experiment: Bactericidal activity against methicillin-resistant Staphylococcus aureus clinical isolate 9 after 24 hrs. Type of assay: functional. The note with it: isolate 9, 24 h.
Assay [3] concerns Staphylococcus aureus. As to the kind of experiment: Bactericidal activity against methicillin-resistant Staphylococcus aureus clinical isolate 4 after 24 hrs. The class given is functional. The note with it: isolate 4, 24 h.
The subject of assay [4] is Staphylococcus aureus. As to the kind of experiment: Bactericidal activity against methicillin-resistant Staphylococcus aureus clinical isolate 7 after 24 hrs. Type of assay: functional. The note with it: isolate 7, 24 h.
Assay [5] deals with Staphylococcus aureus. As to the kind of experiment: Bactericidal activity against methicillin-resistant Staphylococcus aureus clinical isolate 20 after 24 hrs. The class given is functional. The note with it: isolate 20, 24 h.
Assay [6] concerns Staphylococcus aureus. Put plainly: Bactericidal activity against methicillin-resistant Staphylococcus aureus clinical isolate 21 after 24 hrs. Type of assay: functional. To be noted: isolate 21, 24 h.
Assay [7] has as its system Staphylococcus aureus. As to the kind of experiment: Bactericidal activity against methicillin-resistant Staphylococcus aureus clinical isolate 14 after 24 hrs. Type of assay: functional. The note with it: isolate 14, 24 h.
The subject of assay [8] is Staphylococcus aureus. Put plainly: Bactericidal activity against methicillin-resistant Staphylococcus aureus clinical isolate 10 after 24 hrs. The note with it: isolate 10, 24 h. The class given is functional.
Assay [9] deals with Staphylococcus aureus. As to the kind of experiment: Bactericidal activity against methicillin-resistant Staphylococcus aureus clinical isolate 16 after 24 hrs. The class given is functional. The note with it: isolate 16, 24 h.
Assay [10] deals with Staphylococcus aureus. As to the kind of experiment: Bactericidal activity against methicillin-resistant Staphylococcus aureus clinical isolate 18 after 24 hrs. Type of assay: functional. The note with it: isolate 18, 24 h.
The test system of assay [11] is Staphylococcus aureus. As to the kind of experiment: Bactericidal activity against methicillin-resistant Staphylococcus aureus clinical isolate 11 after 24 hrs. To be noted: isolate 11, 24 h. Type of assay: functional.
Assay [12] relates to Staphylococcus aureus. As to the kind of experiment: Bactericidal activity against methicillin-resistant Staphylococcus aureus clinical isolate 2 after 24 hrs. The class given is functional. The note with it: isolate 2, 24 h.
Assay [13] relates to Staphylococcus aureus. As to the kind of experiment: Bactericidal activity against methicillin-resistant Staphylococcus aureus clinical isolate 3 after 24 hrs. The class given is functional. To be noted: isolate 3, 24 h.
Assay [14] relates to Staphylococcus aureus. Put plainly: Bactericidal activity against methicillin-resistant Staphylococcus aureus clinical isolate 19 after 24 hrs. Type of assay: functional. To be noted: isolate 19, 24 h.
Assay [15] has as its system Staphylococcus aureus. As to the kind of experiment: Bactericidal activity against methicillin-resistant Staphylococcus aureus clinical isolate 15 after 24 hrs. Type of assay: functional. To be noted: isolate 15, 24 h.
Assay [16] concerns Staphylococcus aureus. Put plainly: Bactericidal activity against methicillin-resistant Staphylococcus aureus clinical isolate 5 after 24 hrs. To be noted: isolate 5, 24 h. Type of assay: functional.
The subject of assay [17] is Staphylococcus aureus. Put plainly: Bactericidal activity against methicillin-resistant Staphylococcus aureus clinical isolate 13 after 24 hrs. The class given is functional. The note with it: isolate 13, 24 h.
Assay [18] relates to Staphylococcus aureus. Put plainly: Bactericidal activity against methicillin-resistant Staphylococcus aureus clinical isolate 1 after 24 hrs. The class given is functional. To be noted: isolate 1, 24 h.
For assay [19], the system named is Staphylococcus aureus. As to the kind of experiment: Bactericidal activity against methicillin-resistant Staphylococcus aureus clinical isolate 6 after 24 hrs. Type of assay: functional. To be noted: isolate 6, 24 h.
The subject of assay [20] is Staphylococcus aureus. Put plainly: Bactericidal activity against methicillin-resistant Staphylococcus aureus clinical isolate 8 after 24 hrs. The class given is functional. The note with it: isolate 8, 24 h.
Assay [21] concerns Staphylococcus aureus. Put plainly: Bactericidal activity against methicillin-resistant Staphylococcus aureus clinical isolate 12 after 24 hrs. Type of assay: functional. The note with it: isolate 12, 24 h.
In assay [22] the test system is Staphylococcus epidermidis. As to the kind of experiment: Antimicrobial activity against Staphylococcus epidermidis ATCC 12228 by broth dilution method. Type of assay: functional.
Another assay concerns Candida tropicalis. As to the kind of experiment: Antifungal activity against Candida tropicalis ATCC 750 by broth microdilution method. The class given is functional. In general terms: Dilution methods test growth across graded concentrations, often in twofold steps.
Assay [23] relates to Staphylococcus aureus. As to the kind of experiment: Bacteriostatic activity against Staphylococcus aureus ATCC 29213 after 24 hrs. Type of assay: functional, organism-based.
Assay [24] concerns Staphylococcus epidermidis. Put plainly: Bactericidal activity against Staphylococcus epidermidis ATCC 12228 after 24 hrs. Type of assay: functional. The note with it: ATCC 12228, 24 h.
Assay [25] deals with Escherichia coli. Put plainly: Bactericidal activity against Escherichia coli ATCC 11229 after 24 hrs. The class given is functional. To be noted: ATCC 11229, 24 h.
Assay [26] relates to Pseudomonas aeruginosa. Put plainly: Bactericidal activity against Pseudomonas aeruginosa ATCC 27853 after 24 hrs. To be noted: ATCC 27853, 24 h. Type of assay: functional.
The subject of assay [27] is Pseudomonas aeruginosa. As to the kind of experiment: Antimicrobial activity against Pseudomonas aeruginosa ATCC 27853 by broth dilution method. The class given is functional.
For the next assay, the system named is Candida parapsilosis. As to the kind of experiment: Antifungal activity against Candida parapsilosis ATCC 22019 by broth microdilution method. The class given is functional. To be noted: Lodderomyces parapsilosis.
Assay [28] relates to Escherichia coli. As to the kind of experiment: Antimicrobial activity against Escherichia coli ATCC 11229 by broth dilution method. Type of assay: functional.
The test system of a further assay is Nakaseomyces glabratus. As to the kind of experiment: Antifungal activity against Candida glabrata ATCC 90030 by broth microdilution method. Type of assay: functional.
Assay [29] relates to Staphylococcus aureus. Put plainly: Antimicrobial activity against Staphylococcus aureus ATCC 29213 by broth dilution method. The class given is functional.
The next assay concerns Candida albicans. As to the kind of experiment: Antifungal activity against Candida albicans ATCC 18804 by broth microdilution method. The class given is functional.
For assay [30], the system named is Escherichia coli. As to the kind of experiment: Bacteriostatic activity against Escherichia coli ATCC 11229 after 24 hrs. Type of assay: functional, organism-based.
Assay [31] concerns Staphylococcus aureus. Put plainly: Bactericidal activity against Staphylococcus aureus ATCC 29213 after 24 hrs. Type of assay: functional. The note with it: ATCC 29213, 24 h.
Assay [32] has as its system Staphylococcus aureus. Put plainly: Bactericidal activity against methicillin-resistant Staphylococcus aureus clinical isolate after 24 hrs. Type of assay: functional.

Converted amounts (≈) assume the structure as drawn. The source made the active and inactive calls. Where only a bound is given, the exact number is not on record here.

Broadly, the MBC is the smallest concentration meeting the test's criterion for killing. Read a low MBC as greater bactericidal potency. `CN[C@H](CC(C)C)C(=O)N[C@H]1C(=O)N[C@@H](CC(N)=O)C(=O)N[C@H]2C(=O)N[C@H]3C(=O)N[C@H](C(=O)N[C@H](C(=O)O)c4cc(O)cc(O)c4-c4cc3ccc4O)[C@H](O)c3ccc(c(Cl)c3)Oc3cc2cc(c3O[C@@H]2O[C@H](CO)[C@@H](O)[C@H](O)[C@H]2O[C@H]2C[C@](C)(N)[C@H](O)[C@H](C)O2)Oc2ccc(cc2Cl)[C@H]1O` [VANCOMYCIN]: the minimal bactericidal concentration (MBC) with Staphylococcus aureus [1] came to 0.5 mg/L (≈ 0.345 µM); against Staphylococcus aureus [2], 1 mg/L (≈ 0.69 µM); with Staphylococcus aureus [3], 1 mg/L (≈ 0.69 µM); with Staphylococcus aureus [4] it was 1 mg/L (≈ 0.69 µM); against Staphylococcus aureus [5], 0.5 mg/L (≈ 0.345 µM); against Staphylococcus aureus [6], 0.5 mg/L (≈ 0.345 µM). Besides, the MBC in the assay with Staphylococcus aureus [7], in the assay on Staphylococcus aureus [8], against Staphylococcus aureus [9], in the assay with Staphylococcus aureus [10], against Staphylococcus aureus [11] and with Staphylococcus aureus [12] was 1 mg/L (≈ 0.69 µM) throughout. The MBC is 0.5 mg/L (≈ 0.345 µM) with Staphylococcus aureus [13]; 0.5 mg/L (≈ 0.345 µM) with Staphylococcus aureus [14]; 1 mg/L (≈ 0.69 µM) against Staphylococcus aureus [15]; 1 mg/L (≈ 0.69 µM) in the assay on Staphylococcus aureus [16]; 1 mg/L (≈ 0.69 µM) against Staphylococcus aureus [17]; 1 mg/L (≈ 0.69 µM) against Staphylococcus aureus [18]. The MBC was determined as 1 mg/L (≈ 0.69 µM) with Staphylococcus aureus [19], 0.5 mg/L (≈ 0.345 µM) in the assay on Staphylococcus aureus [20] and 1 mg/L (≈ 0.69 µM) in the assay with Staphylococcus aureus [21].

For orientation: MIC means the smallest concentration in the dilution series that meets the test's criterion for growth inhibition. Low readings indicate a more susceptible organism, high ones a less susceptible organism. For the compound `CCCCCCCCCCCC(=O)NCCCN`, the MIC in assay [22] was 32 mg/L (≈ 125 µM); in the assay with Candida tropicalis, 128 mg/L (≈ 499 µM); with Pseudomonas aeruginosa [27], 64 mg/L (≈ 250 µM); against Candida parapsilosis, 64 mg/L (≈ 250 µM); against Escherichia coli [28] it was 128 mg/L (≈ 499 µM); against Nakaseomyces glabratus it was 32 mg/L (≈ 125 µM). The MIC against Staphylococcus aureus [29] and in the assay on Candida albicans was 256 mg/L (≈ 998 µM) in each case. Further, the result in the assay on Staphylococcus aureus [23] was Active. The figures for the minimal bactericidal concentration (MBC) (in [24]; in the assay with Escherichia coli [25]; with Pseudomonas aeruginosa [26]) were 32 mg/L (≈ 125 µM), 512 mg/L (≈ 2000 µM) and 256 mg/L (≈ 998 µM), respectively.

On to `CCCCCCCCCCCCCCCC(=O)NCCCN`, for which the MIC in assay [22] is 4 mg/L (≈ 12.8 µM); against Candida tropicalis, 16 mg/L (≈ 51.2 µM); in the assay with Pseudomonas aeruginosa [27], above 1020 mg/L; in the assay on Candida parapsilosis, 8 mg/L (≈ 25.6 µM); in the assay with Escherichia coli [28] it was 32 mg/L (≈ 102 µM); with Nakaseomyces glabratus it was 8 mg/L (≈ 25.6 µM). The minimum inhibitory concentration (MIC) in the assay on Staphylococcus aureus [29] was above 1020 mg/L; against Candida albicans, 64 mg/L (≈ 205 µM). Moreover, the minimum bactericidal concentration (MBC) in [24] came to 64 mg/L (≈ 205 µM). Also, the result in the assay on Escherichia coli [30] was Active.

Take `CCC(C)n1ncn(-c2ccc(N3CCN(c4ccc(OCC5COC(Cn6cncn6)(c6ccc(Cl)cc6Cl)O5)cc4)CC3)cc2)c1=O` (stereo unspecified) [ITRACONAZOLE]: the MIC was above 512 mg/L against Candida tropicalis, above 512 mg/L in the assay on Candida parapsilosis, 256 mg/L (≈ 363 µM) in the assay with Nakaseomyces glabratus and 0.5 mg/L (≈ 0.709 µM) against Candida albicans.

For orientation: MIC50 means an inhibitory concentration at the 50% level, which refers to growth in some studies and to a panel of isolates in others. The low end stands for greater potency, the high end for weaker potency. By MIC90 is commonly meant the lowest concentration that inhibits either 90% of growth or 90% of the strains tested, depending on the study. As to `CCCCCCCC/C=C\CCCCCCCC(=O)NCCCN`, the MIC in assay [22] is 1 mg/L (≈ 2.95 µM); with Candida tropicalis, 4 mg/L (≈ 11.8 µM); in the assay on Pseudomonas aeruginosa [27] it was above 1020 mg/L; in the assay with Candida parapsilosis, 4 mg/L (≈ 11.8 µM); with Escherichia coli [28], 4 mg/L (≈ 11.8 µM); in the assay with Nakaseomyces glabratus, 4 mg/L (≈ 11.8 µM). Moreover, the MIC against Staphylococcus aureus [29] and with Candida albicans was 2 mg/L (≈ 5.91 µM) each time. Further, the minimal bactericidal concentration (MBC) came out at 16 mg/L (≈ 47.3 µM) with Staphylococcus aureus [1]; 16 mg/L (≈ 47.3 µM) against Staphylococcus aureus [2]; 512 mg/L (≈ 1510 µM) with Staphylococcus aureus [3]; 16 mg/L (≈ 47.3 µM) against Staphylococcus aureus [4]; 1020 mg/L (≈ 3020 µM) in the assay on Staphylococcus aureus [5]; 16 mg/L (≈ 47.3 µM) in assay [24]. Moreover, the minimum bactericidal concentration (MBC) against Staphylococcus aureus [31] stood at 128 mg/L (≈ 378 µM); against Staphylococcus aureus [6] it was 512 mg/L (≈ 1510 µM); in the assay with Staphylococcus aureus [7], 1020 mg/L (≈ 3020 µM); in the assay with Staphylococcus aureus [8], 8 mg/L (≈ 23.6 µM); in the assay on Staphylococcus aureus [9], 8 mg/L (≈ 23.6 µM); against Staphylococcus aureus [10], 8 mg/L (≈ 23.6 µM). The minimal bactericidal concentration (MBC) in the assay on Staphylococcus aureus [11] turned out to be 16 mg/L (≈ 47.3 µM); in the assay on Staphylococcus aureus [12], 16 mg/L (≈ 47.3 µM); against Staphylococcus aureus [13] it was 16 mg/L (≈ 47.3 µM); in the assay with Staphylococcus aureus [14], 4 mg/L (≈ 11.8 µM); in the assay with Staphylococcus aureus [15] it was 16 mg/L (≈ 47.3 µM); in the assay with Staphylococcus aureus [16], 16 mg/L (≈ 47.3 µM). In addition, the MBC against Staphylococcus aureus [17] is 64 mg/L (≈ 189 µM); against Staphylococcus aureus [18] it was 16 mg/L (≈ 47.3 µM); against Staphylococcus aureus [19] it was 64 mg/L (≈ 189 µM); in the assay on Staphylococcus aureus [20], 16 mg/L (≈ 47.3 µM); against Staphylococcus aureus [21] it was 16 mg/L (≈ 47.3 µM). In the assay on Staphylococcus aureus [32], this compound had an MIC50 of 16 mg/L (≈ 47.3 µM). The compound further displayed an MIC90 against Staphylococcus aureus [32] of 512 mg/L (≈ 1510 µM). In addition, the result with Escherichia coli [30] was Active.
